Measurements taken from patent publication US12708620B2, “Prodrugs and medical uses thereof” (priority 2018, dated 2026).

Assays:
[1] = system: panel of cancer cell lines; experiment: formation rate of Cpd.11c and Cpd.11d metabolites in cancer cell lines; assay type: in vitro ADME, human
Description: FIG. 3: cytotoxicity of Cpd.11 Ms and metabolites in normoxic and anoxic conditions in a panel of human cancer cell lines. […] The same panel of cell lines has been used to calculate the formation rate of Cpd.11c and Cpd.11d metabolites (B). A panel of human cell lines isolated from lung cancer (A-427, […], NCI-460, NCI-H1975), pancreatic cancer (Hs 766T, BxPC-3, Capan-1), and breast cancer (MDA-MB-453, SK-BR-3, EFM-19, Hs578t) has been exposed to synthetic version of Cpd.11c and Cpd.11d metabolites, that present cytotoxic properties also in normoxic conditions (C). The average plating efficiency in the drug-free control wells was 43% under normoxic and 30% under anoxic conditions.

PANC-1 tumor xenograft = experiment: pancreatic cancer (PDAC) xenograft model; assay type: in vivo, BALB/c Nude Mice; conditions: PANC-1 xenograft; for Anti-tumor effect: 600 mg/kg IP, hypoxic status confirmed, methanesulfonate, 600 mg/kg
Method: All animal models were established as xenograft model in BALB/c Nude Mice (6-8 weeks old, 17-23 grams, maintained in standard conditions and diet), following approved IACUC (Institutional Animal Care and Use Committees) protocols. Cpd.11 Ms was formulated using 2% dimethyl sulfoxide (DMSO in water for injection, starting from a Cpd.11 Ms main preparation (100-60 mg/ml in 2% DMSO in water for injection).
After tumor cell inoculation, the animals were checked daily for morbidity and mortality. Before commencement of treatment all animals were weighed and the tumor volumes were measured using a caliper. The treatments were started when the mean tumor size reached approx. 250 mm^3. Each treated/control group contained 10 mice that were randomly assigned and injected daily for 5 days. The date of tumor cell inoculation was denoted as day 0 (thus injections were performed at day 1, 2, 3, 4, and 5). At the time of routine monitoring, the animals were checked for any effects of tumor growth and treatments on normal behavior such as mobility, visual estimation of food and water consumption, body weight gain/loss (body weights were measured daily during the 5-day treatment and thrice weekly after treatment), eye/hair matting and any other abnormal effect. Death and observed clinical signs were recorded on the basis of the numbers of animals within each subset. Tumor volumes were measured daily during the 5-day treatment and thrice weekly after treatment in two dimensions using a caliper, and the volume was expressed in mm3 using the formula: V=0.5 a×b2 where a and b are the long and short diameters of the tumor, respectively. The entire procedures of dosing as well as tumor and body weight measurement were conducted in a Laminar Flow Cabinet. Individual mice were euthanized by cervical dislocation when the tumor size reached 1400-1600 mm3. The surrogate endpoint for survival was calculated and indicated as TVx4 (initial tumor volume times 4). Statistical analysis of difference in tumor volume among the groups was conducted at the end of experiment using Independent-Samples T Test. All data were analyzed in SPSS (Statistical Product and Service Solutions) version 18.0 (IBM, Armonk, NY, U.S.). P-values were rounded to three decimal places, with the exception that raw P-values less than 0.001 were stated as P<0.001. All tests were two-sided. P<0.05 was considered to be statistically significant.
For the MDA-MB-436 tumor (ATCC: HTB-130; Passage: P4) cells were maintained in vitro as a monolayer culture in L-15 medium supplemented with 10% heat inactivated fetal bovine serum at 37° C. in an atmosphere of 100% air. […] The cells growing in an exponential growth phase were harvested and counted for tumor inoculation. […]

[2] = stability to gamma irradiation sterilization; conditions: powder filled vial sterilized under gamma irradiation
[3] = water solubility for preparing injection dilution

CCN1CCN(C(=O)c2cc(N(CCBr)CCOS(C)(=O)=O)c(S(C)(=O)=O)cc2[N+](=O)[O-])CC1.CS(=O)(=O)O [Cpd.11 Ms, 4-(5-((2-bromoethyl) (2-((methylsulfonyl)oxy)ethyl)amino)-4-(methylsulfonyl)-2-nitrobenzoyl)-1-ethylpiperazin-1-ium methanesulfonate]
conversion of Cpd.11 Ms into Cpd.11c and Cpd.11d (FIG. 3B) [1]: strong and rapid ratio of conversion | Anti-tumor effect (PANC-1 tumor xenograft; single treatment cycle, listed as Cpd.11Ms): Clear impact, | Anti-tumor effect (PANC-1 tumor xenograft; single treatment cycle): significant tumour growth retardation | body weight loss (PANC-1 tumor xenograft; IP): without major body weight loss | increase in median surrogate survival index (PANC-1 tumor xenograft; single treatment cycle, P=0.0018): approx. 50% | stability to sterilizing conditions [2]: sufficiently stable | solubility [3]: ≥ 100 mg/mL
